Measurements published in patent US20230085307A1, “PYRIDAZINONE COMPOUND AND HERBICIDE” (NISSAN CHEMICAL CORPORATION, priority 2019, published 2023).

Experiments:
[1] = tested on: late watergrass; experiment: Test Example 1: herbicidal activity, application before weed generation under submerged conditions (Table 16, symbol A); assay type: in vivo, late watergrass (Echinochloa oryzicola); settings: 320 g/ha applied herbicide
In short: (§1)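 Submerged Wagner pots (alluvial soil, 4 cm water) sown with weed seeds and planted with 2.5-leaf rice seedlings; emulsifiable concentrate diluted in water applied to water surface on sowing day. Held in greenhouse at 25-30 °C; injury scored 0-5 by herbicidal rate after three weeks.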

[2] = tested on: Japanese bulrush; experiment: Test Example 1: herbicidal activity, application before weed generation under submerged conditions (Table 16, symbol B); assay type: in vivo, Japanese bulrush (Schoenoplectus juncoides); settings: 320 g/ha applied herbicide
In short: as §1

[3] = tested on: oval-leafed pondweed; experiment: Test Example 1: herbicidal activity, application before weed generation under submerged conditions (Table 16, symbol C); assay type: in vivo, oval-leafed pondweed (Monochoria vaginalis); settings: 320 g/ha applied herbicide
In short: as §1

[4] = tested on: barnyard grass; experiment: Test Example 3: herbicidal effect by foliage application, Wagner pot (Table 18, symbol H); assay type: in vivo, barnyard grass (Echinochloa crus-galli); settings: 320 g/ha
In short: (§2)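 Plants were sown in alluvial soil held under 0.1–0.5 cm standing water and grown 14 days in a greenhouse at 25–30 °C. An emulsifiable formulation, water-diluted to the set dose, was then sprayed onto the foliage, and effects were scored three weeks later using previously defined criteria.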

[5] = tested on: Chinese sprangletop; experiment: Test Example 3: herbicidal effect by foliage application, Wagner pot (Table 18, symbol D); assay type: in vivo, chinese sprangletop (Leptochloa chinensis); settings: 320 g/ha
In short: as §2

[6] = tested on: rice flat sedge; experiment: Test Example 3: herbicidal effect by foliage application, Wagner pot (Table 18, symbol E); assay type: in vivo, rice flat sedge (Cyperus iria); settings: 320 g/ha
In short: as §2

[7] = tested on: southern crabgrass; experiment: Test Example 4: herbicidal effect by soil treatment (Table 19, symbol F); assay type: in vivo, southern crabgrass (Digitaria ciliaris); settings: amount of applied herbicide 320 g/ha
In short: (§3)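 In this soil treatment, the formulated compound reached the seeds only through the soil: seeds were buried about 1.5 cm deep in sterilized diluvial soil, then the diluted emulsion was sprayed over the surface. After three weeks at 25° C. to 30° C. in a greenhouse, effects were graded on criteria from an earlier test.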

[8] = tested on: green foxtail; experiment: Test Example 4: herbicidal effect by soil treatment (Table 19, symbol G); assay type: in vivo, green foxtail (Setaria viridis); settings: amount of applied herbicide 320 g/ha
In short: as §3

[9] = tested on: barnyard grass; experiment: Test Example 4: herbicidal effect by soil treatment (Table 19, symbol H); assay type: in vivo, barnyard grass (Echinochloa crus-galli); settings: amount of applied herbicide 320 g/ha
In short: as §3

[10] = tested on: wild oat; experiment: Test Example 4: herbicidal effect by soil treatment (Table 19, symbol I); assay type: in vivo, wild oat (Avena fatua); settings: amount of applied herbicide 320 g/ha
In short: as §3

[11] = tested on: blackgrass; experiment: Test Example 4: herbicidal effect by soil treatment (Table 19, symbol J); assay type: in vivo, blackgrass (Alopecurus myosuroides); settings: amount of applied herbicide 320 g/ha
In short: as §3

[12] = tested on: Italian ryegrass; experiment: Test Example 4: herbicidal effect by soil treatment (Table 19, symbol K); assay type: in vivo, Italian ryegrass (Lolium multiflorum); settings: amount of applied herbicide 320 g/ha
In short: as §3

[13] = tested on: windgrass; experiment: Test Example 4: herbicidal effect by soil treatment (Table 19, symbol L); assay type: in vivo, windgrass (Apera spica-venti); settings: amount of applied herbicide 320 g/ha
In short: as §3

[14] = tested on: velvetleaf; experiment: Test Example 4: herbicidal effect by soil treatment (Table 19, symbol M); assay type: in vivo, velvetleaf (Abutilon theophrasti); settings: amount of applied herbicide 320 g/ha
In short: as §3

[15] = tested on: redroot pigweed; experiment: Test Example 4: herbicidal effect by soil treatment (Table 19, symbol N); assay type: in vivo, redroot pigweed (Amaranthus retroflexus); settings: amount of applied herbicide 320 g/ha
In short: as §3

[16] = tested on: lambsquarters; experiment: Test Example 4: herbicidal effect by soil treatment (Table 19, symbol O); assay type: in vivo, lambsquarters (Chenopodium album); settings: amount of applied herbicide 320 g/ha
In short: as §3

[17] = tested on: chickweed; experiment: Test Example 4: herbicidal effect by soil treatment (Table 19, symbol P); assay type: in vivo, common chickweed (Stellaria media); settings: amount of applied herbicide 320 g/ha
In short: as §3

[18] = tested on: false cleavers; experiment: Test Example 4: herbicidal effect by soil treatment (Table 19, symbol Q); assay type: in vivo, false cleavers (Galium spurium); settings: amount of applied herbicide 320 g/ha
In short: as §3

[19] = tested on: persian speedwell; experiment: Test Example 4: herbicidal effect by soil treatment (Table 19, symbol R); assay type: in vivo, Persian speedwell (Veronica persica); settings: amount of applied herbicide 320 g/ha
In short: as §3

[20] = tested on: southern crabgrass; experiment: Test Example 5: herbicidal effect by foliage application, plastic box (Table 20, symbol F); assay type: in vivo, southern crabgrass (Digitaria ciliaris); settings: foliage application, 320 g/ha, three weeks after application
In short: (§4)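 Plants were sown into sterilized diluvial soil under about 1.5 cm cover and kept in a greenhouse at 25° C. to 30° C. Fourteen days on, foliage received an even spray of the diluted emulsion. Herbicidal or crop effect was judged three weeks afterwards.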

[21] = tested on: green foxtail; experiment: Test Example 5: herbicidal effect by foliage application, plastic box (Table 20, symbol G); assay type: in vivo, green foxtail (Setaria viridis); settings: foliage application, 320 g/ha, three weeks after application
In short: as §4

[22] = tested on: barnyard grass; experiment: Test Example 5: herbicidal effect by foliage application, plastic box (Table 20, symbol H); assay type: in vivo, barnyard grass (Echinochloa crus-galli); settings: foliage application, 320 g/ha, three weeks after application
In short: as §4

[23] = tested on: wild oat; experiment: Test Example 5: herbicidal effect by foliage application, plastic box (Table 20, symbol I); assay type: in vivo, wild oat (Avena fatua); settings: foliage application, 320 g/ha, three weeks after application
In short: as §4

[24] = tested on: blackgrass; experiment: Test Example 5: herbicidal effect by foliage application, plastic box (Table 20, symbol J); assay type: in vivo, blackgrass (Alopecurus myosuroides); settings: foliage application, 320 g/ha, three weeks after application
In short: as §4

[25] = tested on: Italian ryegrass; experiment: Test Example 5: herbicidal effect by foliage application, plastic box (Table 20, symbol K); assay type: in vivo, Italian ryegrass (Lolium multiflorum); settings: foliage application, 320 g/ha, three weeks after application
In short: as §4

[26] = tested on: windgrass; experiment: Test Example 5: herbicidal effect by foliage application, plastic box (Table 20, symbol L); assay type: in vivo, windgrass (Apera spica-venti); settings: foliage application, 320 g/ha, three weeks after application
In short: as §4

[27] = tested on: velvetleaf; experiment: Test Example 5: herbicidal effect by foliage application, plastic box (Table 20, symbol M); assay type: in vivo, velvetleaf (Abutilon theophrasti); settings: foliage application, 320 g/ha, three weeks after application
In short: as §4

[28] = tested on: redroot pigweed; experiment: Test Example 5: herbicidal effect by foliage application, plastic box (Table 20, symbol N); assay type: in vivo, redroot pigweed (Amaranthus retroflexus); settings: foliage application, 320 g/ha, three weeks after application
In short: as §4

[29] = tested on: lambsquarters; experiment: Test Example 5: herbicidal effect by foliage application, plastic box (Table 20, symbol O); assay type: in vivo, lambsquarters (Chenopodium album); settings: foliage application, 320 g/ha, three weeks after application
In short: as §4

[30] = tested on: chickweed; experiment: Test Example 5: herbicidal effect by foliage application, plastic box (Table 20, symbol P); assay type: in vivo, common chickweed (Stellaria media); settings: foliage application, 320 g/ha, three weeks after application
In short: as §4

[31] = tested on: false cleavers; experiment: Test Example 5: herbicidal effect by foliage application, plastic box (Table 20, symbol Q); assay type: in vivo, false cleavers (Galium spurium); settings: foliage application, 320 g/ha, three weeks after application
In short: as §4

[32] = tested on: persian speedwell; experiment: Test Example 5: herbicidal effect by foliage application, plastic box (Table 20, symbol R); assay type: in vivo, Persian speedwell (Veronica persica); settings: foliage application, 320 g/ha, three weeks after application
In short: as §4

SMILES: CCCC(=O)Oc1c(C)nn(C)c(=O)c1-c1c(-c2ccc(N(C)C)cc2)sc2ccccc12 [1-040]
- Herbicidal effect on A: late watergrass (grade 0-5) [1]: 3 (Herbicidal rate of 40% or more and less than 70%)
- Herbicidal effect on B: Japanese bulrush (grade 0-5) [2]: 3 (Herbicidal rate of 40% or more and less than 70%)
- Herbicidal effect on C: oval-leafed pondweed (grade 0-5) [3]: 1 (Herbicidal rate of 5% or more and less than 20%)
- herbicidal effect on H (barnyard grass), rating 0-5 [4]: 4 (Herbicidal rate of 70% or more and less than 90%)
- herbicidal effect on D (Chinese sprangletop), rating 0-5 [5]: 3 (Herbicidal rate of 40% or more and less than 70%)
- herbicidal effect on E (rice flat sedge), rating 0-5 [6]: 5 (Herbicidal rate of 90% or more (almost completely withered))
- herbicidal effect rating, F: southern crabgrass [7]: 0 (Herbicidal rate of 5% or less (almost no effect))
- herbicidal effect rating, G: green foxtail [8]: 0 (Herbicidal rate of 5% or less (almost no effect))
- herbicidal effect rating, H: barnyard grass [9]: 0 (Herbicidal rate of 5% or less (almost no effect))
- herbicidal effect rating, I: wild oat [10]: 0 (Herbicidal rate of 5% or less (almost no effect))
- herbicidal effect rating, J: blackgrass [11]: 0 (Herbicidal rate of 5% or less (almost no effect))
- herbicidal effect rating, K: Italian ryegrass [12]: 3 (Herbicidal rate of 40% or more and less than 70%)
- herbicidal effect rating, L: windgrass [13]: 0 (Herbicidal rate of 5% or less (almost no effect))
- herbicidal effect rating, M: velvetleaf [14]: 0 (Herbicidal rate of 5% or less (almost no effect))
- herbicidal effect rating, N: redroot pigweed [15]: 0 (Herbicidal rate of 5% or less (almost no effect))
- herbicidal effect rating, O: lambsquarters [16]: 0 (Herbicidal rate of 5% or less (almost no effect))
- herbicidal effect rating, P: chickweed [17]: 0 (Herbicidal rate of 5% or less (almost no effect))
- herbicidal effect rating, Q: false cleavers [18]: 0 (Herbicidal rate of 5% or less (almost no effect))
- herbicidal effect rating, R: persian speedwell [19]: 0 (Herbicidal rate of 5% or less (almost no effect))
- herbicidal effect grade, F: southern crabgrass [20]: 4 (Herbicidal rate of 70% or more and less than 90%)
- herbicidal effect grade, G: green foxtail [21]: 5 (Herbicidal rate of 90% or more (almost completely withered))
- herbicidal effect grade, H: barnyard grass [22]: 3 (Herbicidal rate of 40% or more and less than 70%)
- herbicidal effect grade, I: wild oat [23]: 0 (Herbicidal rate of 5% or less (almost no effect))
- herbicidal effect grade, J: blackgrass [24]: 0 (Herbicidal rate of 5% or less (almost no effect))
- herbicidal effect grade, K: Italian ryegrass [25]: 4 (Herbicidal rate of 70% or more and less than 90%)
- herbicidal effect grade, L: windgrass [26]: 0 (Herbicidal rate of 5% or less (almost no effect))
- herbicidal effect grade, M: velvetleaf [27]: 5 (Herbicidal rate of 90% or more (almost completely withered))
- herbicidal effect grade, N: redroot pigweed [28]: 5 (Herbicidal rate of 90% or more (almost completely withered))
- herbicidal effect grade, O: lambsquarters [29]: 4 (Herbicidal rate of 70% or more and less than 90%)
- herbicidal effect grade, P: chickweed [30]: 5 (Herbicidal rate of 90% or more (almost completely withered))
- herbicidal effect grade, Q: false cleavers [31]: 3 (Herbicidal rate of 40% or more and less than 70%)
- herbicidal effect grade, R: persian speedwell [32]: 5 (Herbicidal rate of 90% or more (almost completely withered))
